What follows are compounds tested against T1, prostanoide receptor subtype (mouse EP3a) (Mus musculus, UniProt P30557) (assay: Binding assay using expression cell of prostanoide receptor subtype ([3H]PGE2 competition, membrane fraction)). Conditions: mouse EP3a membrane fraction (0.5 mg/ml); [3H]-PGE2 2.5 nM; pH 6.0; 1 hour at room temperature; Ki=IC50/(1+([c]/Kd)); read-out: Ki (dissociation constant).
T1 construct: expressed in transfected cells
T1 sequence (P30557 1-365): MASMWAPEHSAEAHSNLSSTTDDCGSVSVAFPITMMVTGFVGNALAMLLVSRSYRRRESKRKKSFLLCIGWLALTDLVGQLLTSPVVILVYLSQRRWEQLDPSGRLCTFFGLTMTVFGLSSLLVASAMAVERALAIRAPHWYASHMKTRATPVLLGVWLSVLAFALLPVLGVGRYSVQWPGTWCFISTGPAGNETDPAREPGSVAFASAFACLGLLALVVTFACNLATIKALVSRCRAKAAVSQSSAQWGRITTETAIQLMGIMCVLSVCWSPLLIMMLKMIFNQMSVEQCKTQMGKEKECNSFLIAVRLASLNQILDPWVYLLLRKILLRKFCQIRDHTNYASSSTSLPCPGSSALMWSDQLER
Protocol: (i) Binding assay using expression cell of prostanoide receptor subtype
The preparation of membrane fraction was carried out according to the method of Sugimoto et al [J. Biol. Chem. 267, 6463-6466(1992)], using prostanoide receptor subtype (mouse EP3a).
The standard assay mixture containing a membrane fraction (0.5 mg/ml), [^3 H]PGE2 in a final volume of […] was incubated for 1 hour at room temperature. The reaction was terminated by the addition of 3 ml of ice-cooled buffer. The mixture was rapidly filtered through a Whatman GF/B glass filter. The radioactivity associated with the filter was measured in ACS II (Amarsham) by liquid scintillation counting.
Kd and Bmax values were determined from Scatchard plots [Ann. N.Y. Acad. Sci., 51,660(1949)]. Non-specific binding was calculated as the bond in the presence of an excess (2.5 mM) of unlabeled PGE2. In the experiment for competition of specific [^3 H]-PGE2 binding by the compounds of the present invention, [^3 H]-PGE2 was added at a concentration of 2.5 nM and the compounds of the present invention were at a concentration of 1 mM.
The following buffer was used in all reactions. Buffer: 10 mM potassium phosphate (pH 6.0), 1 mM EDTA, 10 mM MgCl2, 0.1 M NaCl
The dissociation constant (Ki) of each compound was calculated by the following equation.

Row | Structure (SMILES) | Ki [nM]
1 | O=C(O)COc1cccc2c1CCCC2NS(=O)(=O)c1ccc2ccccc2c1 (stereo not shown) [Example 3(q), 5-(naphth-2-yl-sulfonylamino)-5,6,7,8-tetrahydronaphthyloxyacetic acid] | 320
2 | O=C(O)COc1cccc2c(NS(=O)(=O)CCc3ccccc3)cccc12 [Example 3(v), 5-[(2-phenylethyl)sulfonylamino]naphthyloxyacetic acid] | 17
3 | O=C(O)COc1cccc2c3c(ccc12)CCC(NS(=O)(=O)/C=C/c1ccccc1)C3 (stereo not shown) [Example 3(ff), 6-[(2-phenylvinyl)sulfonylamino]-5,6,7,8-tetrahydrophenanthrene-1-yl-oxyacetic acid] | 2.5
4 | O=C(O)COc1cccc2c(CCS(=O)(=O)NCC(c3ccccc3)c3ccccc3)cccc12 [Example 6(f)] | 7.5
5 | O=C(O)COc1cccc2cc(CCNS(=O)(=O)/C=C/c3ccccc3)ccc12 [Example 3(h), 6-[2-[(2-phenylvinyl)sulfonylamino]ethyl]naphthyloxyacetic acid] | 37
6 | O=C(O)COc1cccc2c1CCC=C2CCNS(=O)(=O)/C=C/c1ccccc1 [Example 3(aa), 5-[2-[(2-phenylvinyl)sulfonylamino]ethyl]-7,8-dihydronaphthyloxyacetic acid] | 7.9
7 | O=C(O)COc1cccc2c(NS(=O)(=O)C=C(c3ccccc3)c3ccccc3)cccc12 [Example 3(i), 5-[(2,2-diphenylvinyl)sulfonylamino]naphthyloxyacetic acid] | 37
8 | O=C(O)COc1cccc2c(CCNS(=O)(=O)/C=C/c3ccccc3)cccc12 [Example 3(g)] | 7
9 | O=C(O)COc1cccc2c1CCCC2NS(=O)(=O)C=C(c1ccccc1)c1ccccc1 (stereo not shown) [Example 3(p), 5-[(2,2-diphenylvinyl)sulfonylamino]-5,6,7,8-tetrahydronaphthyloxyacetic acid] | 36
10 | O=C(O)COc1cccc2c(CCNS(=O)(=O)CCc3ccccc3)cccc12 [Example 3(w), 5-[2-[(2-phenylethyl)sulfonylamino]ethyl]naphthyloxyacetic acid] | 28

Reference: US5624959A, “Naphthyloxyacetic acid” (Ono Pharmaceutical Co., Ltd., priority 1993, dated 1997)
